Laboratory results as given in article PMC9395488, “First-in-human study of IM156, a novel potent biguanide oxidative phosphorylation (OXPHOS) inhibitor, in patients with advanced solid tumors” (Investigational New Drugs, 2022).

Tested on: patients with advanced solid tumors
Assay: First-in-human phase 1 dose-escalation study: safety, DLTs, adverse events
Type: in vivo
Text: This multicenter first-in-human dose-escalation phase 1 study (clinicaltrials.gov identifier: NCT03272256) was designed to determine the MTD or RP2D and to evaluate the safety and tolerability of IM156. Secondary endpoints included PK characteristics, efficacy assessment (objective response rate [ORR], disease control rate [DCR], duration of response [DoR] and progression-free survival [PFS]). Furthermore, exploratory objectives included identification and profiling of IM156 metabolites, evaluations of exploratory PD markers of IM156, and evaluations of any potential relationship between putative biomarkers and safety/efficacy parameters of IM156. The study was conducted in accordance with Good Clinical Practice, the International Council for Harmonisation, and guidelines governing clinical study conduct and the ethical principles originating from the Declaration of Helsinki. The study was approved by each Institutional Review Board and patients provided written informed consent. Patients were enrolled at three sites in South Korea.
The initial dose and schedule of IM156 was chosen based on animal toxicology studies. […] IM156 was administered in the fasted state, with no food for at least 2 h before and 1 h after dosing.
Three DLT-evaluable patients were enrolled at each dose level. If there were no DLTs or other prohibitive adverse events (AEs), the Safety Committee was allowed to recommend escalation to the next highest dose level. If 1 DLT occurred in the first 3 DLT-evaluable patients, enrollment in that cohort was expanded to an additional 3 DLT-evaluable patients; if ≥ 2 DLTs were reported in a cohort, that dose was considered above the MTD.
Safety was assessed through vital signs, weight, laboratory assessments, physical examinations, electrocardiogram, and reporting of AEs as graded by the National Cancer Institute’s Common Terminology Criteria for Adverse Events v4.03 (NCI-CTCAE).
DLTs were defined as the following AEs if they were attributed as related to IM156: asymptomatic grade 4 neutropenia lasting for ≥ 5 days; febrile neutropenia, regardless of grade; grade 4 thrombocytopenia or grade 3 thrombocytopenia with bleeding; any grade ≥ 3 non-hematologic AE (except grade 3 hypertension and grade 3 nausea, vomiting or diarrhea for which proper measures for prevention and treatment were not implemented, and alopecia); blood lactate levels > 5 mmol; grade ≥ 2 AE prohibiting dosing of IM156 for ≥ 21 continuous days except for alterations in serum calcium or phosphorus levels. The safety analysis includes all patients who received at least one dose of study drug.
The safety population was defined as all patients who received at least one dose of IM156. The PK population was not defined in the protocol but included all patients with sufficient PK data to perform adequate PK modeling. The efficacy population included all patients who underwent at least one tumor imaging assessment while receiving IM156. Safety was assessed using descriptive statistics (e.g., DLTs, AEs, laboratory tests, physical examination, 12-lead ECG). The incidence and number of events were reported for the DLTs observed in Cycle 1 per dose group. […] Adverse events and TRAEs were standardized with the System Organ Class and the Preferred Term using the Medical Dictionary for Regulatory Activities v23.0. In addition, TEAEs, serious adverse events (SAEs), TEAE severity, and TEAEs leading to withdrawal were presented by dose group. Efficacy data were to be presented by Waterfall and Swim Lane plots. Time to event endpoints (e.g., DoR, PFS) were determined using Kaplan–Meier estimations with the median value for each endpoint summarized.

[1] = DL1 100 mg orally every other day (n=3)

In the case of NC(=Nc1ccc(OC(F)(F)F)cc1)N=C(N)N1CCCC1 [IM156], the “SAE Abdominal distension: Causality” value (100 mg QOD) is reported as “Unlikely”, the “SAE Abdominal distension: Dose Interrupted” value (100 mg QOD) is reported as “Yes” and the “SAE Abdominal distension: Grade” value (100 mg QOD) is reported as 2. The “SAE Abdominal distension: Outcome” value (100 mg QOD) was “Recovered without sequelae”, the “SAE Gastric Obstruction: Causality” value (100 mg QOD) was “Unlikely” and the “SAE Gastric Obstruction: Dose Interrupted” value (100 mg QOD) was “Yes”. For the same compound, the “SAE Gastric Obstruction: Grade” value (100 mg QOD) was 3, the “SAE Gastric Obstruction: Outcome” value (100 mg QOD) was “Recovered without sequelae” and the “SAE Ileus: Causality” value (200 mg QOD) was “Unlikely”. The “SAE Ileus: Dose Interrupted” value (200 mg QOD) was “No”, the “SAE Ileus: Grade” value (200 mg QOD) was 3 and the “SAE Ileus: Outcome” value (200 mg QOD) was “Recovered without sequelae”. For the same compound, the “SAE Cystitis: Causality” value (800 mg QOD) was “Unlikely”, the “SAE Cystitis: Dose Interrupted” value (800 mg QOD) was “Yes” and the “SAE Cystitis: Grade” value (800 mg QOD) was 2. The “SAE Cystitis: Outcome” value (800 mg QOD) was “Recovered without sequelae”, the “SAE Worsen abdominal pain: Causality” value (800 mg QOD) was “Unlikely” and the “SAE Worsen abdominal pain: Dose Interrupted” value (800 mg QOD) was “Yes”. The “SAE Worsen abdominal pain: Grade” value (800 mg QOD) was 3, the “SAE Worsen abdominal pain: Outcome” value (800 mg QOD) was “Resolved to Grade 1” and the “SAE Akathisia: Causality” value (1,200 mg QD) was “Unlikely”. The “SAE Akathisia: Dose Interrupted” value (1,200 mg QD) was “No”, the “SAE Akathisia: Grade” value (1,200 mg QD) was 2 and the “SAE Akathisia: Outcome” value (1,200 mg QD) was “Recovered without sequelae”. For the same compound, the “SAE Lethargy: Causality” value (1,200 mg QD) was “Unlikely”, the “SAE Lethargy: Dose Interrupted” value (1,200 mg QD) was “Yes” and the “SAE Lethargy: Grade” value (1,200 mg QD) was 2. The “SAE Lethargy: Outcome” value (1,200 mg QD) was “Recovered without sequelae”, the “SAE Perforated Appendicitis: Causality” value (1,200 mg QD) was “Unlikely” and the “SAE Perforated Appendicitis: Dose Interrupted” value (1,200 mg QD) was “No”. The “SAE Perforated Appendicitis: Grade” value (1,200 mg QD) was 3, the “SAE Perforated Appendicitis: Outcome” value (1,200 mg QD) was “Recovered without sequelae” and the tolerability (1,200 mg QD, due to nausea) was “not well tolerated”. For the same compound, the “SAE Nausea: Causality” value (1,200 mg QOD) was “Possible”, the “SAE Nausea: Dose Interrupted” value (1,200 mg QOD) was “Yes” and the “SAE Nausea: Grade” value (1,200 mg QOD) was 3. For the same compound, the “trend of blood lactate levels with dose or exposure” value (100 to 1,200 mg) was “no trend”, the “dose-limiting toxicities (DLTs), all dose levels” value (100 to 1,200 mg QOD or QD, cycle 1) was “no DLTs” and the “TEAE Abdominal distension, grade 2” value (DL1 100 mg QOD (n=3)) was 1. The “TEAE Ascites, grade 1” value (DL1 100 mg QOD (n=3)) was 1, the “TEAE Blood creatinine increased, grade 1” value (DL1 100 mg QOD (n=3)) was 1 and the “TEAE Decreased appetite, grade 1” value (DL1 100 mg QOD (n=3)) was 1. For the same compound, the “TEAE Diarrhoea, grade 2” value (DL1 100 mg QOD (n=3)) was 1, the “TEAE Gastrointestinal pain, grade 2” value (DL1 100 mg QOD (n=3)) was 1 and the “TEAE Hypoalbuminaemia, grade 2” value (DL1 100 mg QOD (n=3)) was 1. For the same compound, the “TEAE Large intestinal obstruction, grade 2” value (DL1 100 mg QOD (n=3)) was 1, the “TEAE Nausea, grade 1” value (DL1 100 mg QOD (n=3)) was 1 and the “TEAE Obstruction gastric, grade 3” value (DL1 100 mg QOD (n=3)) was 1. The “TEAE Proctalgia, grade 2” value (DL1 100 mg QOD (n=3)) was 1, the “TEAE Pyrexia, grade 1” value (DL1 100 mg QOD (n=3)) was 1 and the “TEAE Vomiting, grade 1” value (DL1 100 mg QOD (n=3)) was 1. For the same compound, the “TRAE Abdominal Pain, > G3 (patients)” value (DL1 100 mg QOD oral, N = 3) was 0, the “TRAE Abdominal Pain, All grades (patients)” value (DL1 100 mg QOD oral, N = 3) was 0 and the “TRAE Blood Lactic Acid increased, > G3 (patients)” value (DL1 100 mg QOD oral, N = 3) was 0. For the same compound, the “TRAE Blood Lactic Acid increased, All grades (patients)” value (DL1 100 mg QOD oral, N = 3) was 0, the “TRAE Constipation, > G3 (patients)” value (DL1 100 mg QOD oral, N = 3) was 0 and the “TRAE Constipation, All grades (patients)” value (DL1 100 mg QOD oral, N = 3) was 0. For the same compound, the “TRAE Decreased appetite, > G3 (patients)” value (DL1 100 mg QOD oral, N = 3) was 0, the “TRAE Decreased appetite, All grades (patients)” value (DL1 100 mg QOD oral, N = 3) was 0 and the “TRAE Diarrhoea, > G3 (patients)” value (DL1 100 mg QOD oral, N = 3) was 0. For the same compound, the “TRAE Diarrhoea, All grades (patients)” value (DL1 100 mg QOD oral, N = 3) was 0, the “TRAE Fatigue, > G3 (patients)” value (DL1 100 mg QOD oral, N = 3) was 0 and the “TRAE Fatigue, All grades (patients)” value (DL1 100 mg QOD oral, N = 3) was 0. For the same compound, the “TRAE Insomnia, > G3 (patients)” value (DL1 100 mg QOD oral, N = 3) was 0, the “TRAE Insomnia, All grades (patients)” value (DL1 100 mg QOD oral, N = 3) was 0 and the “TRAE Nausea, > G3 (patients)” value (DL1 100 mg QOD oral, N = 3) was 0. For the same compound, the “TRAE Nausea, All grades (patients)” value (DL1 100 mg QOD oral, N = 3) was 0, the “TRAE Vomiting, > G3 (patients)” value (DL1 100 mg QOD oral, N = 3) was 0 and the “TRAE Vomiting, All grades (patients)” value (DL1 100 mg QOD oral, N = 3) was 0. The “TEAE Adrenal insufficiency grade 1” value [1] was 0, the “TEAE Adrenal insufficiency grade 2” value [1] was 0 and the “TEAE Adrenal insufficiency grade 3” value [1] was 0. For the same compound, the “TEAE Adrenal insufficiency grade 4” value [1] was 0, the “TEAE Anaemia grade 1” value [1] was 0 and the “TEAE Anaemia grade 2” value [1] was 1. The “TEAE Anaemia grade 3” value [1] was 0, the “TEAE Anaemia grade 4” value [1] was 0 and the “TEAE Appendicitis perforated grade 1” value [1] was 0. The “TEAE Appendicitis perforated grade 2” value [1] was 0, the “TEAE Appendicitis perforated grade 3” value [1] was 0 and the “TEAE Appendicitis perforated grade 4” value [1] was 0. For the same compound, the “TEAE Back pain grade 1” value [1] was 0, the “TEAE Back pain grade 2” value [1] was 0 and the “TEAE Back pain grade 3” value [1] was 0. For the same compound, the “TEAE Back pain grade 4” value [1] was 0, the “TEAE Cystitis grade 1” value [1] was 0 and the “TEAE Cystitis grade 2” value [1] was 0. The “TEAE Cystitis grade 3” value [1] was 0, the “TEAE Cystitis grade 4” value [1] was 0 and the “TEAE Dry skin grade 1” value [1] was 0. For the same compound, the “TEAE Dry skin grade 2” value [1] was 0, the “TEAE Dry skin grade 3” value [1] was 0 and the “TEAE Dry skin grade 4” value [1] was 0. The “TEAE Flank pain grade 1” value [1] was 0, the “TEAE Flank pain grade 2” value [1] was 0 and the “TEAE Flank pain grade 3” value [1] was 0. For the same compound, the “TEAE Flank pain grade 4” value [1] was 0, the “TEAE Hypertension grade 1” value [1] was 0 and the “TEAE Hypertension grade 2” value [1] was 0. The “TEAE Hypertension grade 3” value [1] was 0, the “TEAE Hypertension grade 4” value [1] was 0 and the “TEAE Hypotension grade 1” value [1] was 0. For the same compound, the “TEAE Hypotension grade 2” value [1] was 0, the “TEAE Hypotension grade 3” value [1] was 0 and the “TEAE Hypotension grade 4” value [1] was 0. For the same compound, the “TEAE Insomnia grade 1” value [1] was 0, the “TEAE Insomnia grade 2” value [1] was 0 and the “TEAE Insomnia grade 3” value [1] was 0. The “TEAE Insomnia grade 4” value [1] was 0, the “TEAE Pain in extremity grade 1” value [1] was 0 and the “TEAE Pain in extremity grade 2” value [1] was 0. For the same compound, the “TEAE Pain in extremity grade 3” value [1] was 0, the “TEAE Pain in extremity grade 4” value [1] was 0 and the “TEAE Pruritus grade 1” value [1] was 0. The “TEAE Pruritus grade 2” value [1] was 0, the “TEAE Pruritus grade 3” value [1] was 0 and the “TEAE Pruritus grade 4” value [1] was 0.
